Experiment: Panel tasting of KCl/NaCl solutions in water
Details: for masking of the off-notes of KCl: 5000 ppm sugar alcohol in water with 1600 ppm KCl and 800 ppm NaCl, panel of professional tasters
Procedure: Three solutions were prepared: • A 1600 ppm of KCl and 800 ppm of NaCl in water • B 1600 ppm of KCl and 800 ppm of NaCl in water containing 5000 ppm of mannitol • C 1600 ppm of KCl and 800 ppm of NaCl in water containing 5000 ppm of dulcitol The solutions were compared by a panel of professional tasters.

SMILES	masking compared with mannitol (5000 ppm dulcitol vs 5000 ppm mannitol, 1600 ppm KCl and 800 ppm NaCl in water, panel)	taste perception (5000 ppm dulcitol, 1600 ppm KCl and 800 ppm NaCl in water, panel)	masking of the off-notes of KCl
OC[C@@H](O)[C@H](O)[C@H](O)[C@@H](O)CO [dulcitol, Galactitol (=dulcitol)]	noticeably better in masking	more positive, described as ‘rounded-off’, perception	mask the off-notes KCl well
OC[C@@H](O)[C@@H](O)[C@H](O)[C@H](O)CO [mannitol, Mannitol]	–	–	mask the off-notes KCl well

— patent US9596874B2, “Bitter taste masking compositions and method of masking bitter taste” (Givaudan S.A., priority 2010, dated 2017)
